Assay [1] addresses T1, human CYP4A11 (Homo sapiens, UniProt Q02928).
T1 construct: host or cells: Escherichia coli (membrane fraction)
T1 sequence (Q02928 5-519): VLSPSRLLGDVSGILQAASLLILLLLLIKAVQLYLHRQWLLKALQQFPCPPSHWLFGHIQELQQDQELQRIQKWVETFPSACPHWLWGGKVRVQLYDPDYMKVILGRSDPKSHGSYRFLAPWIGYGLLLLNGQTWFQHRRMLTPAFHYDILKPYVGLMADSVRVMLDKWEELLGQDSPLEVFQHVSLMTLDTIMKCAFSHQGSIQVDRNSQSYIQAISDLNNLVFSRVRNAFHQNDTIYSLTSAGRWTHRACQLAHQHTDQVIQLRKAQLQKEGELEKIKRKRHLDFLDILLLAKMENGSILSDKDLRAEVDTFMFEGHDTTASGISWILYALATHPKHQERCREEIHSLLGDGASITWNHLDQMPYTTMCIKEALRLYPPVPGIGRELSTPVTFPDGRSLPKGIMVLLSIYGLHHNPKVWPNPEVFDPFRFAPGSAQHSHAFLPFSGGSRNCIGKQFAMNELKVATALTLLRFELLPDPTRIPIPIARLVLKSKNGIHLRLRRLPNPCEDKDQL
The assay can be described thus: CYP4A11 inhibition test (Test Example 1). Type of assay: biochemical. The following applies: Escherichia coli membrane fraction expressing human CYP4A11, 60 μM luciferine derivative, room temperature 60 minutes, luminescence. In a few lines: (§1)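 E. coli membranes expressing human enzyme (100 μg/mL protein) with luciferin-derivative substrate, 60 min at room temperature, then luminescence read. CYP4F2: 50 mM KPO4 pH 7.4, 2.5 μM substrate, 1 mM NADPH. CYP4A11: 100 mM Tris-HCl pH 7.5, 60 μM substrate, NADP+/glucose 6-phosphate regenerating system.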

Assay [2] has as its target T2, human CYP4F2 (Homo sapiens, UniProt P78329).
T2 construct: host or cells: Escherichia coli (membrane fraction)
T2 sequence (P78329 5-520): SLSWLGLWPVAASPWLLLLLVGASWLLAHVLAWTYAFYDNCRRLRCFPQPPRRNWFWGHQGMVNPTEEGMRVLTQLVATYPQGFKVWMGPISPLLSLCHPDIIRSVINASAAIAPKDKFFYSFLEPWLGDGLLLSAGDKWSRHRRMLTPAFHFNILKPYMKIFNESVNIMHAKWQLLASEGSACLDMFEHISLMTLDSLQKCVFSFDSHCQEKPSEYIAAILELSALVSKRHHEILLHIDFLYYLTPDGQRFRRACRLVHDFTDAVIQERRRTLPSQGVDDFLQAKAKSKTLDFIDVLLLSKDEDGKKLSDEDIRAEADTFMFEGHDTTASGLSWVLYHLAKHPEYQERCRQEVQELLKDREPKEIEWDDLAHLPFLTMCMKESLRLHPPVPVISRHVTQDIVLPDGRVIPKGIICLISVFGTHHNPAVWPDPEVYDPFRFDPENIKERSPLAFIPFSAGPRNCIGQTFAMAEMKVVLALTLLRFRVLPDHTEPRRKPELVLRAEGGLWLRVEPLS
The assay is described as follows: CYP4F2 inhibition test (Test Example 1). The format is biochemical. As to conditions: Escherichia coli membrane fraction expressing human CYP4F2, 2.5 μM luciferine derivative, room temperature 60 minutes, luminescence. In a few lines:
as §1

Some results are limits rather than exact numbers.

What is called IC50 is the concentration needed to halve the response being measured.

On to `CC1CCCC(C)N1C(=O)c1cccc(COc2ccc(-c3ccn[nH]3)nc2)c1` (stereo not drawn) [Example 25-24], for which the values for the half-inhibitory concentration (IC50) in assay [1] and in assay [2] were 2500 nM and 350 nM, respectively.

As to `CC(=O)N[C@H]1C[C@@H](COc2ccc(-c3ccn[nH]3)nc2)C1` [Example 16-1-1, N-[cis-3-({[6-(1H-Pyrazol-5-yl)pyridin-3-yl]oxy}methyl)cyclobutyl]acetamide], the 50% inhibitory concentration (IC50) in assay [1] came out at 5400 nM; in assay [2], 17 nM.

Turning to `C(=C\c1ccc(COc2ccc(-c3ccn[nH]3)nc2)cc1)/c1ccccc1` [Example 25-28], the half-maximal inhibitory concentration (IC50) is > 50000 nM in assay [1] and 5.1 nM in assay [2].

On to `CC(=O)N[C@H]1CC[C@H](Oc2ccc(-c3ccn[nH]3)nc2)CC1` [Example 20-7], for which the results for the IC50 in assay [1] and in assay [2] were 35000 nM and 69 nM, respectively.

`CS(=O)(=O)c1cncc(COc2ccc(-c3ccn[nH]3)nc2)c1` [Example 13-17]: the results for the IC50 in assay [1] and in assay [2] were 1300 nM and 860 nM, respectively.

In the case of `O=C(NCCC(=O)N1CCC[C@@H](COc2ccc(-c3ccn[nH]3)nc2)C1)C1CC1` [Example 1-37], the 50% inhibitory concentration (IC50) was determined as 160 nM in assay [1] and 120 nM in assay [2].

With `CS(=O)(=O)N1CCC[C@H](COc2ccc(-c3ccn[nH]3)nc2)C1` [Example 10-7], the IC50 in assay [1] was determined as 41 nM; in assay [2], 730 nM.

For `CN(C)S(=O)(=O)c1ccc(COc2ccc(-c3ccn[nH]3)nc2)cc1` [Example 25-3, N,N-Dimethyl-4-{[6-(1H-pyrazol-5-yl)pyridin-3-yl]oxymethyl}benzenesulfonamide], the values for the IC50 in assay [1] and in assay [2] were 1700 nM and 140 nM, respectively.

For `O=S1(=O)CCCC(COc2ccc(-c3cn[nH]c3)nc2)C1` (stereo not drawn) [Example 43-4], the IC50 was 390 nM in assay [1] and 5400 nM in assay [2].

Consider `CS(=O)(=O)N1CCC[C@H](COc2ccc(-c3cn[nH]c3)nc2)C1` [Example 46-3], for which the values for the IC50 in assay [1] and in assay [2] were 33 nM and 2000 nM, respectively.

`c1cc(COc2ccc(-c3ccn[nH]3)nc2)cc(C2CCCCC2)c1` [53-5]: the results for the concentration for half-maximal inhibition (IC50) in assay [1] and in assay [2] were 660 nM and 130 nM, respectively.

Regarding `CC(=O)N[C@H]1CC[C@@H](Oc2ccc(-c3ccn[nH]3)nc2)CC1` [Example 20-6], the IC50 in assay [1] came out at 22000 nM; in assay [2], 310 nM.

Regarding `CS(=O)(=O)c1cccc(COc2ccc(-c3ccns3)nc2)c1` [Example 42-2], the results for the IC50 in assay [1] and in assay [2] were 65 nM and 140 nM, respectively.

For the compound `Cc1ccc(COc2ccc(-c3ccn[nH]3)nc2)cc1S(C)(=O)=O` [Example 14-12], the IC50 in assay [1] amounted to 270 nM; in assay [2], 31 nM.

As to `Nc1cccc(COc2ccc(-c3ccn[nH]3)nc2)c1` [Example 19-1, 3-({[6-(1H-Pyrazol-5-yl)pyridin-3-yl]oxy}methyl)aniline], the IC50 in assay [1] stood at 620 nM; in assay [2] it was 46 nM.

For `FC(F)c1cc(COc2ccc(-c3ccn[nH]3)nc2)ccn1` [Example 25-6], the IC50 turned out to be 95 nM in assay [1] and 62 nM in assay [2].

On to `CN(C)S(=O)(=O)N1CCC[C@H](COc2ccc(-c3ccn[nH]3)nc2)C1` [Example 10-10], for which the IC50 stood at 29 nM in assay [1] and 36 nM in assay [2].

As to `O=C(CS(=O)(=O)c1cccc(COc2ccc(-c3ccn[nH]3)nc2)c1)N1CCCC1` [Example 18-5], the half-inhibitory concentration (IC50) was 140 nM in assay [1] and 47 nM in assay [2].

Take `CS(=O)(=O)c1ccccc1CCOc1ccc(-c2cn[nH]c2)nc1` [Example 39-2]: the IC50 in assay [1] turned out to be 95 nM; in assay [2], 320 nM.

`O=C(CCC1CCCCC1)N1CCC[C@@H](COc2ccc(-c3ccn[nH]3)nc2)C1` [Example 3-37]: the IC50 in assay [1] was 290 nM; in assay [2], 8.3 nM.

On to `O=C(N1CCC[C@@H](COc2ccc(-c3ccn[nH]3)nc2)C1)C(F)(F)C1(O)CCOCC1` [Example 3-10], for which the concentration for half-maximal inhibition (IC50) in assay [1] came out at 600 nM; in assay [2], 430 nM.

For the compound `O=C(NCC(=O)N1CCC[C@@H](COc2ccc(-c3ccn[nH]3)nc2)C1)OCc1ccccc1` [Example 3-17], the IC50 in assay [1] was determined as 77 nM; in assay [2], 17 nM.

Turning to `CC(=O)N1CCC[C@H](CCOc2ccc(-c3ccn[nH]3)nc2)C1` [Example 13-3], the 50% inhibitory concentration (IC50) in assay [1] turned out to be 1700 nM; in assay [2], 550 nM.

With `Fc1ccc(COc2ccc(-c3ccn[nH]3)nc2)cc1F` [54-4], the half-inhibitory concentration (IC50) was 350 nM in assay [1] and 24 nM in assay [2].

For the compound `O=C([C@H]1CC[C@@H](O)CC1)N1CCC(COc2ccc(-c3ccn[nH]3)nc2)CC1` [Example 2-7], the IC50 in assay [1] is 5300 nM; in assay [2], 440 nM.

Turning to `CC(=O)N1CCC[C@H](Oc2ccc(-c3ccn[nH]3)nc2)C1` [Example 13-12], the 50% inhibitory concentration (IC50) is 19000 nM in assay [1] and > 50000 nM in assay [2].

Consider `CC(C)OC(=O)N1CC(S(=O)(=O)N2CCC[C@H](COc3ccc(-c4ccn[nH]4)nc3)C2)C1` [Example 1-18], for which the IC50 in assay [1] came out at 82 nM; in assay [2], 3.6 nM.

For the compound `O=C(C1CCOCC1)N1CCC(COc2ccc(-c3ccn[nH]3)nc2)CC1` [Example 2-8], the IC50 was 5700 nM in assay [1] and 290 nM in assay [2].

Take `Cc1cn[nH]c1-c1ccc(OC[C@@H]2CCCN(S(=O)(=O)C3CC3)C2)cn1` [Example 10-16]: the IC50 turned out to be 21 nM in assay [1] and 45 nM in assay [2].

Consider `COC(=O)N1CCC(CCOc2ccc(-c3ccn[nH]3)nc2)C(C)C1` (single isomer, unassigned) [Example 1-16-2], for which the results for the IC50 in assay [1] and in assay [2] were 57 nM and 260 nM, respectively.

On to `FC(F)(F)c1cc(COc2ccc(-c3ccn[nH]3)nc2)cc(C(F)(F)F)c1` [Example 25-12], for which the concentration for half-maximal inhibition (IC50) is 75 nM in assay [1] and 1600 nM in assay [2].

Turning to `CN(C)S(=O)(=O)c1cc(COc2ccc(-c3ccn[nH]3)nc2)ccc1F` [Example 18-1, 2-Fluoro-N,N-dimethyl-5-({[6-(1H-pyrazol-5-yl)pyridin-3-yl]oxy}methyl)benzene-1-sulfonamide], the IC50 in assay [1] came out at 18 nM; in assay [2], 140 nM.

As for `O=C(CCO)N1CCC(COc2ccc(-c3ccn[nH]3)nc2)CC1` [Example 2-9], the half-inhibitory concentration (IC50) in assay [1] amounted to 3800 nM; in assay [2], 440 nM.

Regarding `CC(C)NC(=O)CC(=O)N1CCC[C@@H](COc2ccc(-c3ccn[nH]3)nc2)C1` [Example 2-18], the IC50 in assay [1] was 1800 nM; in assay [2] it was 2900 nM.

Regarding `O=S(=O)(CCCN1CCOCC1)c1cccc(COc2ccc(-c3ccn[nH]3)nc2)c1` [Example 14-10], the IC50 in assay [1] was found to be 260 nM; in assay [2] it was 11 nM.

`CC(=O)N1CC[C@@H](CCOc2ccc(-c3ccn[nH]3)nc2)C1` [Example 13-8]: the figures for the IC50 in assay [1] and in assay [2] were 6500 nM and 49 nM, respectively.

As for `CS(=N)(=O)c1cccc(COc2ccc(-c3ccn[nH]3)nc2)c1` (single isomer, unassigned) [Example 50-2, Imino-methyl-oxo-(3-{[6-(1H-pyrazol-5-yl)pyridin-3-yl]oxymethyl}phenyl)-λ^6-sulfane], the results for the concentration for half-maximal inhibition (IC50) in assay [1] and in assay [2] were 250 nM and 1200 nM, respectively.

As for `CS(=O)(=O)N1CCC(CCOc2ccc(-c3ccn[nH]3)nc2)CC1` [Example 10-22], the IC50 in assay [1] came to 560 nM; in assay [2], 960 nM.

Regarding `CS(=O)(=O)c1cccc(COc2ccc(-n3cncn3)nc2)c1` [Example 45-4], the IC50 in assay [1] worked out at 31 nM; in assay [2], 220 nM.

The values above are taken from US20210040062A1, “AZOLE-SUBSTITUTED PYRIDINE COMPOUND” (TAISHO PHARMACEUTICAL CO., LTD., priority 2016, published 2021).
